Assay results: patent US3931143A, “Unsymmetrical aliphatic monoazo compounds” (priority 1971, dated 1976)
Where two headings read alike, the source gives them in different places.

Tests used:
[1] = for 10 hr. t1/2 temp.: Table II, solvent not given; for temperature of 10 hour half-life: in trichlorobenzene; for t1/2: trichlorobenzene
[2] = Thermal decomposition half-life in odorless mineral spirits; type: physicochemical
[3] = Solubility in petroleum / hydrocarbon / common organic solvents; conditions: even at temperatures as low as -20°C
[4] = Preliminary toxicological studies compared with AIBN
Excerpt: In general, the new compositions of the present invention eliminate these problems. The tertiary-(alkyl, cycloalkyl, bicycloalkyl or aralkyl) group on the one side of the azo function lowers the melting point of these compounds so that most of them are liquids or low melting solids which can be handled in the melted state. In addition, this tertiary group increases the solubility of these azos so that most of them are completely miscible with the common organic solvents including petroleum hydrocarbons. Thus, no dusting, metering, incorporating, mixing, and dispersing problems are encountered in using these new compositions. […] The less toxic nature of the new compositions coupled with their liquid and high solubility properties allows them to be used in many applications where AIBN cannot be used.

[5] = Stability in unsaturated polyester-styrene resin at room temperature; type: physicochemical; conditions: unsaturated polyester-styrene resin of Example III
Protocol: An unsaturated polyester resin was made by reacting maleic anhydride (1.0 mole), phthalic anhydride (1.0 mole), and propylene glycol (2.2 moles) until an acid number of 45-50 was obtained. To this was added hydroquinone at a 0.013% concentration. Seven parts of this unsaturated polyester was diluted with 3 parts of monomeric styrene to obtain a homogeneous blend having a viscosity of 13.08 poise and a specific gravity of 1.14.

rat = conditions: in rat; decomposition residue of AIBN; cited from earlier work
[6] = Thermal decomposition half-life in water; type: physicochemical

Row | SMILES | temperature of 10 hour half-life [1] | also measured
1 | CC(C)(C)N=NC(C)(C#N)c1ccccc1 (stereo not drawn) [XLII, 1-t-butylazo-1-cyano-1-phenylethane] | – | 10 hr. t1/2 temp. [1]: ~ 30 °C
2 | CC(C)CCC(C)(C#N)N=NC(C)(C)C (stereo not drawn) [2-t-Butylazo-2-cyano-5-methylhexane] | approximately 78 °C | –
3 | CCC(C)(C)N=NC(C)(C)C#N [XIV, 2-t-Amylazo-2-cyanopropane] | 79 °C | –
4 | CC(C)(C)N=NC1(C#N)CCCCC1 [Example V, 1-t-Butylazo-1-cyanocyclohexane] | 96 °C | t1/2 ([1]; 96.3 °C): 10.0 h; t1/2 ([1]; 100 °C): 6.7 h; t1/2 ([1]; 110 °C): 2.3 h; t1/2 ([1]; 120 °C): 0.75 h
5 | CC1(N=NC2(C#N)CCCCC2)CCCCC1 [LXII, 1-t-(Methylcyclohexyl)azo-1-cyanocyclohexane] | approximately 100 °C | –
6 | CC(C)(C)N=NC1(C(N)=O)CCCCC1 [LXIII, 1-t-Butylazo-1-carbamylcyclohexane] | 111 °C | –
7 | CC1CC(C)(C)CC(C#N)(N=NC(C)(C)C)C1 (stereo not drawn) [Example VIII, 1-t-Butylazo-1-cyano-3,3,5-trimethylcyclohexane] | 78 °C | –
8 | CCC(C)(C#N)N=NC(C)(C)C (stereo not drawn) [Example VI, 2-t-Butylazo-2-cyanobutane] | around 80 °C | temperature of 10 hour half-life [2]: around 82 °C; solubility in hydrocarbon solvents [3]: very soluble
9 | CC(C)(N=NC1(C#N)CCCCC1)c1ccccc1 [Example LVI, 1-t-Cumylazo-1-cyanocyclohexane] | approximately 62.5 °C | –
10 | CC(C)C(=O)OCC(C)(C#N)N=NC(C)(C)C (stereo not drawn) [2-t-Butylazo-2-cyano-1-isobutyroyloxypropane] | approximately 79 °C | –
11 | CC(C)(C)N=NC(C)(C)C(N)=O [Example LXIV, 2-t-Butylazo-2-carbamylpropane] | 110 °C | –
12 | CC(C)CC(C)(C#N)N=NC(C)(C)c1ccccc1 (stereo not drawn) [Example LVII, 2-t-Cumylazo-2-cyano-4-methylpentane] | approximately 33 °C | –
13 | CCC(C)(C)N=NC1(C#N)CCCCC1 [XV, 1-t-Amylazo-1-cyanocyclohexane] | approximately 94 °C | –
14 | CC(C)(C)N=NC(C)(C)C#N [Example I, 2-t-Butylazo-2-cyanopropane] | 79 °C | toxicity compared with AIBN [4]: significantly less toxic than AIBN; temperature of 10 hour half-life [2]: 86 °C; t1/2 ([1]; 70 °C): 40.5 h; t1/2 ([1]; 78.8 °C): 10.0 h; t1/2 ([1]; 90 °C): 2.0 h; t1/2 ([1]; 100 °C): 0.54 h; t1/2 ([1]; 110 °C): 0.20 h
15 | CC(C)CC(C)(C#N)N=NC(C)(C)C (stereo not drawn) [Example XXXII, 2-t-Butylazo-2-cyano-4-methylpentane] | approximately 70 °C | period stable in the resin [5]: exceeding 1 month
16 | COC(C)(C)CC(C)(C#N)N=NC(C)(C)C (stereo not drawn) [Example XXXIV, 2-t-Butylazo-2-cyano-4-methoxy-4-methylpentane] | approximately 55 °C | –
17 | CC(C)(C)N=NC(C)(C#N)C1CC1 (stereo not drawn) [1-t-Butylazo-1-cyano-1-cyclopropylethane] | 62 °C | –
18 | CC(C)(C)N=NC(C)(C#N)COC(=O)c1ccccc1 (stereo not drawn) [2-t-Butylazo-2-cyano-1-benzoyloxypropane] | approximately 77 °C | –
19 | CC(C)(C)N=NC(C)(C)C(N)=NO [2-t-Butylazo-2-methylpropionamidoxime] | approximately 90 °C | –
20 | CC(C)(C)CC(C)(C#N)N=NC(C)(C)C (stereo not drawn) [XLI, 2-t-butylazo-2-cyano-4,4-dimethylpentane] | – | 10 hr. t1/2 temp. [1]: 52 °C
21 | CC(C)(C#N)N=NC(C)(C)c1ccccc1 [Example XII, 2-t-Cumylazo-2-cyanopropane] | 50 °C | –
22 | CC(C)(C#N)C(C)(C)C#N [2,2,3,3-tetramethylsuccinonitrile] | – | LD50 (rat): 30 mg/kg
23 | CC(C)(C)N=NC1(C#N)CCCCCCC1 [Example 1-t-Butylazo-1-cyanocyclooctane, 1-t-Butylazo-1-cyanocyclooctane] | approximately 55 °C | –
24 | CC(C)CC(C#N)(CC(C)C)N=NC(C)(C)C [Example VII, 4-t-Butylazo-4-cyano-2,6-dimethylheptane] | 61 °C | –
25 | CC(C)(C)N=NC(C)(C#N)CCC(=O)O (stereo not drawn) [Example X, 4-t-Butylazo-4-cyanovaleric Acid] | 76 °C | temperature of 10 hour half-life [6]: 73 °C
26 | CC(C)(C)N=NC(C)(C#N)C(C)(C)C (stereo not drawn) [IX, 2-t-Butylazo-2-cyano-3,3-dimethylbutane] | 80 °C | –
27 | CC(C)(C)N=NC1(C#N)CCCCCC1 [Example 1-t-Butylazo-1-cyanocycloheptane, 1-t-Butylazo-1-cyanocycloheptane] | approximately 68 °C | –
28 | CC(C)(C)N=NC(C)(C#N)COC(=O)C(C)(C)C (stereo not drawn) [2-t-Butylazo-2-cyano-1-pivaloyloxypropane] | approximately 75 °C | –
29 | CC(C)(C)N=NC1(C#N)C(C)(C)C(=O)C1(C)C [XLIII, 3-t-butylazo-3-cyano-2,2,4,4-tetramethylcyclobutanone] | – | 10 hr. t1/2 temp. [1]: 115 °C
30 | CCCCCCC(C)(C#N)N=NC(C)(C)C (stereo not drawn) [LI, 2-t-butylazo-2-cyanooctane] | – | 10 hr. t1/2 temp. [1]: 79 °C
